The source of these data is patent US4588731A, “Derivatives of isoxazolo[4,5-c]quinoline(2H)-3-one and method of preparation and use as anxiolytic agents” (Roussel Uclaf, priority 1985, dated 1986).

Data set [1] concerns mice. The data set is described as follows: Acute toxicity, oral route in mice (LD0). The data set is classed as in vivo. On the procedure: The lethal doses LD0 of the different compounds tested after administration by oral route in mice were evaluated. The maximum dose not provoking any mortality in 8 days was called LD0 and the results obtained are in Table II.
Data set [2] concerns the target benzodiazepine receptors. The data set is described as follows: Affinity for benzodiazepine receptors (3H diazepam displacement, rat brain cortex membranes). In kind it is binding, rats. The following applies: 3H diazepam 10^-9 M, 30 minutes at 0° C, read-out: C.I. 50 (concentration inhibiting 50% of the specific bond of 3H diazepam). On the procedure: A. Affinity for benzodiazepine receptors
The technique was inspired by that of Mohler et al [Science, Vol. 198 p. 849-851 (1977] in which the cortex from the brains of male rats weighing on average 150 g were homogenized to a twentieth (weight/volume) in 0.32M sucrose. After centrifuging the homogenate at 1000 g for 10 minutes at 0° C., the supernatant was centrifuged at 30,000 g for 20 minutes at 4° C. The residue was suspended in 20 volumes of Tris buffer HCl 50 mM pH 7.4 and centrifuged at 30,000 g for 20 minutes at 4° C. The new residue obtained was placed in 50 ml of Krebs Tris buffer HCl pH 7.4
2 ml of the suspension in the presence of ^3 H diazepam at a concentration of 10^-9 M were then incubated for 30 minutes at 0° C: (i) alone, (ii) with increasing concentrations of the product to be tested or, (iii) to determine the non-specific fixation, with non-radioactive diazepam at a concentration of 10^-6 M. The incubated suspension were filtered on Whatman GF/C and the filters were washed twice with 5 ml of Krebs Tris buffer HCl pH 7.4 at 0° C. The radioactivity of the filters was measured by liquid scintillation and the activity of the product was expressed in C.I.50, the concentration inhibiting 50% of the specific bond of ^3 H diazepam.

For data set [3], the system named is level of serous corticosterone. The data set is described as follows: Activity on serous level of corticosterone after stress from noise. In kind it is in vivo. The following applies: Rattus norvegicus, 1 h; rats, oral, stress from noise (90 decibels) one hour after dosing; read-out: DE50 (dose which reduced the increase in the level of serous corticosterone by 50%). The method, then:
C. Activity on serous level of corticosterone after stress from noise.
Groups of 5 rats were formed the day before the test and placed in a quiet room. The compounds were administered orally the following day between 8 and 9 o'clock in the morning. One hour afterwards, stress was applied which consisted of taking the animals from the cage and placing them in a room where a radio was playing loudly (90 decibels), then half an hour later, giving them an intraperitoneal puncture without injection. Ten minutes after this, the rats were anesthetized with halothane and samples of blood were taken by decapitation. The levels of serous corticosterone were then determined.
The results are expressed in DE50, that is to say in a dose of the compound tested which reduced the increase in the level of serous corticosterone by 50% in animals treated in comparison with the control animals. The results were DE50 in mg/kg of <50 and <100 for the compounds of Examples 2 and 4, respectively. Stress was less noticeable in the treated animals and those animals had therefore a degree of anxiety less than that of the control animals.

For the compound `O=c1c2cnc3ccc(Cl)cc3c2on1-c1ccccc1` [Example 7, 8-chloro-2-phenylisoxazolo(4,5-c)quinolin-3-(2H)-one], in data set [1], the “LD0 (maximum dose not provoking any mortality in 8 days)” value is at least 100 mg/kg. As for `O=c1c2cnc3ccccc3c2on1-c1ccccc1` [Example 1, 2-phenylisoxazolo(4,5-c)quinolin-3-(2H)-one], the IC50 in data set [2] came out at 120 nM. Also, the “LD0 (maximum dose not provoking any mortality in 8 days)” value in data set [1] is at least 400 mg/kg. In the case of `O=c1c2cnc3ccc(F)cc3c2on1-c1ccccc1` [Example 2, 8-fluoro-2-phenylisoxazolo(4,5-c)quinolin-3-(2H)-one], in data set [2], the IC50 is 400 nM. The “LD0 (maximum dose not provoking any mortality in 8 days)” value in data set [1] is given as at least 400 mg/kg. In addition, the ED50 in data set [3] is below 50 mg/kg. As for `COc1ccc2c(c1)ncc1c(=O)n(-c3ccccc3)oc12` [Example 3, 7-methoxy-2-phenylisoxazolo(4,5-c)quinolin-3-(2H)-one], the “LD0 (maximum dose not provoking any mortality in 8 days)” value in data set [1] was at least 200 mg/kg.

`O=c1c2cnc3ccc(C(F)(F)F)cc3c2on1-c1ccccc1` [Example 5, 8-trifluoromethyl-2-phenylisoxazolo(4,5-c)quinolin-3-(2H)-one]: the “LD0 (maximum dose not provoking any mortality in 8 days)” value in data set [1] was at least 200 mg/kg. Regarding `COc1ccc2ncc3c(=O)n(-c4ccccc4)oc3c2c1` [Example 4, 8-methoxy-2-phenylisoxazolo(4,5-c)quinolin-3-(2H)-one], the IC50 in data set [2] was determined as 2460 nM. Moreover, in data set [1], the “LD0 (maximum dose not provoking any mortality in 8 days)” value was found to be 200 mg/kg. Also, the ED50 in data set [3] was below 100 mg/kg.
